{"source": "paper PMC9374744", "about": "“Structural basis for receptor selectivity and inverse agonism in S1P5 receptors” (Nature Communications, 2022)", "key": {"human S1P5 V115A mutant": {"biological_target": "human S1P5 V115A mutant (Homo sapiens, UniProt Q9H228, V115A)", "sequence (Q9H228 whole entry V115A)": "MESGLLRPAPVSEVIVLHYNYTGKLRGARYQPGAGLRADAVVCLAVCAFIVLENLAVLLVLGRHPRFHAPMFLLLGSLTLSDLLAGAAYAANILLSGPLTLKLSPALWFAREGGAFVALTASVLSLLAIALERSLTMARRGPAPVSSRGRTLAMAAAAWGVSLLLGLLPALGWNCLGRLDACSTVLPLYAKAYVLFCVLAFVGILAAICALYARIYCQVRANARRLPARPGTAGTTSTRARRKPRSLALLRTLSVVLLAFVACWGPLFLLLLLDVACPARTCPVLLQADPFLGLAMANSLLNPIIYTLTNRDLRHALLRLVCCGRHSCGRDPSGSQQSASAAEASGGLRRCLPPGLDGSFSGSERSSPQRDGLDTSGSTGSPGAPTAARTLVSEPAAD", "test": "BRET-based cAMP Gi signaling assay, S1P5 V115A", "settings": "inverse agonism"}, "human S1P5 M296W mutant": {"biological_target": "human S1P5 M296W mutant (Homo sapiens, UniProt Q9H228, M296W)", "sequence (Q9H228 whole entry M296W)": "as the sequence (Q9H228 whole entry V115A) above, with A115V, M296W counted along it", "test": "BRET-based cAMP Gi signaling assay, S1P5 M296W", "settings": "for BRET ratio, single replicate readings (Supplementary Figure 6h): listed as ONO"}, "human S1P5 Y89A mutant": {"biological_target": "human S1P5 Y89A mutant (Homo sapiens, UniProt Q9H228, Y89A)", "sequence (Q9H228 whole entry Y89A)": "as the sequence (Q9H228 whole entry V115A) above, with Y89A, A115V counted along it", "test": "BRET-based cAMP Gi signaling assay, S1P5 Y89A", "settings": "inverse agonism"}, "human S1P5 E112A mutant": {"biological_target": "human S1P5 E112A mutant (Homo sapiens, UniProt Q9H228, E112A)", "sequence (Q9H228 whole entry E112A)": "as the sequence (Q9H228 whole entry V115A) above, with E112A, A115V counted along it", "test": "BRET-based cAMP Gi signaling assay, S1P5 E112A", "settings": "inverse agonism"}, "human S1P5 Y19A mutant": {"biological_target": "human S1P5 Y19A mutant (Homo sapiens, UniProt Q9H228, Y19A)", "sequence (Q9H228 whole entry Y19A)": "as the sequence (Q9H228 whole entry V115A) above, with Y19A, A115V counted along it", "test": "BRET-based cAMP Gi signaling assay, S1P5 Y19A", "settings": "inverse agonism"}, "human S1P5 V115L mutant": {"biological_target": "human S1P5 V115L mutant (Homo sapiens, UniProt Q9H228, V115L)", "sequence (Q9H228 whole entry V115L)": "as the sequence (Q9H228 whole entry V115A) above, with A115L counted along it", "test": "BRET-based cAMP Gi signaling assay, S1P5 V115L", "settings": "inverse agonism"}, "human S1P5 T79A mutant": {"biological_target": "human S1P5 T79A mutant (Homo sapiens, UniProt Q9H228, T79A)", "sequence (Q9H228 whole entry T79A)": "as the sequence (Q9H228 whole entry V115A) above, with T79A, A115V counted along it", "test": "BRET-based cAMP Gi signaling assay, S1P5 T79A", "settings": "for EC50: inverse agonism; for BRET signal, raw replicates: Suppl. Fig. 6d, listed as ONO"}, "human S1P5 E112Q mutant": {"biological_target": "human S1P5 E112Q mutant (Homo sapiens, UniProt Q9H228, E112Q)", "sequence (Q9H228 whole entry E112Q)": "as the sequence (Q9H228 whole entry V115A) above, with E112Q, A115V counted along it", "test": "BRET-based cAMP Gi signaling assay, S1P5 E112Q", "settings": "inverse agonism"}, "[1]": {"settings": "Figure 2c source data, N/R = no response"}}, "note": "Several values for one entry are separate records, joined by “and”; a condition that tells them apart may be missing. Equal values may be shown once.", "data": [{"compound": "O=C(O)CCCN1CCc2cccc(OCCc3cccc4ccccc34)c2CC1", "note": "[ONO-5430608, 4-{6-[2-(1-naphthyl)ethoxy]-1,2,4,5-tetrahydro-3H-3-benzazepin-3-yl} butanoic acid]", "values": [{"measurement": "EC50", "setting": "human S1P5 V115A mutant; ONO, pEC50, M, V115A, mean ± SD, n=3", "value": 29.5, "unit": "nM"}, {"measurement": "EC50", "setting": "human S1P5 V115A mutant; ONO-5430608 pEC50, single experiments #1-#3, V115A, Figure 2c source data", "value": "30.6 nM and 24.8 nM and 34.5 nM"}, {"measurement": "BRET ratio, single replicate readings (Supplementary Figure 6h)", "setting": "human S1P5 M296W mutant; [ONO] 0.169351 nM", "value": "0.7521 and 0.7659 and 0.7554 and 0.7607 and 0.7663 and 0.7553 and 0.7695 and 0.7638 and 0.7661"}, {"measurement": "BRET ratio, single replicate readings (Supplementary Figure 6h)", "setting": "human S1P5 M296W mutant; [ONO] 0.508053 nM", "value": "0.7597 and 0.7659 and 0.7636 and 0.7627 and 0.756 and 0.7622 and 0.7625 and 0.7687 and 0.7621"}, {"measurement": "BRET ratio, single replicate readings (Supplementary Figure 6h)", "setting": "human S1P5 M296W mutant; [ONO] 1.52416 nM", "value": "0.7595 and 0.7589 (2×) and 0.7566 and 0.7528 and 0.7609 and 0.7625 and 0.7671 and 0.7682"}, {"measurement": "BRET ratio, single replicate readings (Supplementary Figure 6h)", "setting": "human S1P5 M296W mutant; [ONO] 4.57247 nM", "value": "0.7595 and 0.7699 and 0.7641 and 0.7574 and 0.7643 and 0.7563 and 0.7684 and 0.7632 and 0.7578"}, {"measurement": "BRET ratio, single replicate readings (Supplementary Figure 6h)", "setting": "human S1P5 M296W mutant; [ONO] 13.7174 nM", "value": "0.7542 and 0.7653 and 0.7527 and 0.7649 and 0.7654 and 0.7644 and 0.7698 and 0.7669 and 0.7638"}, {"measurement": "BRET ratio, single replicate readings (Supplementary Figure 6h)", "setting": "human S1P5 M296W mutant; [ONO] 41.1523 nM", "value": "0.7431 and 0.7677 and 0.7621 and 0.752 and 0.762 and 0.7675 and 0.761 and 0.7565 and 0.7598"}, {"measurement": "BRET ratio, single replicate readings (Supplementary Figure 6h)", "setting": "human S1P5 M296W mutant; [ONO] 123.457 nM", "value": "0.7416 and 0.7628 and 0.7677 and 0.7662 and 0.759 and 0.753 and 0.7663 and 0.7668 and 0.7626"}, {"measurement": "BRET ratio, single replicate readings (Supplementary Figure 6h)", "setting": "human S1P5 M296W mutant; [ONO] 370.37 nM", "value": "0.7572 and 0.757 and 0.7547 and 0.7694 and 0.7517 and 0.7654 and 0.7672 and 0.761 and 0.7564"}, {"measurement": "BRET ratio, single replicate readings (Supplementary Figure 6h)", "setting": "human S1P5 M296W mutant; [ONO] 1111.11 nM", "value": "0.7578 and 0.7573 and 0.7667 and 0.7569 and 0.7627 and 0.7676 and 0.756 and 0.7697 and 0.7628"}, {"measurement": "BRET ratio, single replicate readings (Supplementary Figure 6h)", "setting": "human S1P5 M296W mutant; [ONO] 3333.33 nM", "value": "0.7629 and 0.7592 and 0.7535 and 0.7543 and 0.758 and 0.7671 and 0.744 and 0.7683 and 0.7586"}, {"measurement": "ONO-5430608 pEC50, single experiments #1-#3", "setting": "human S1P5 M296W mutant; inverse agonism, Figure 2c source data, N/R = no response", "value": "N/R"}, {"measurement": "ONO, pEC50, M", "setting": "human S1P5 M296W mutant; inverse agonism, n=3, N/R = no response", "value": "N/R"}, {"measurement": "ONO-5430608 pEC50, single experiments #1-#3", "setting": "human S1P5 Y89A mutant; [1]", "value": "N/R"}, {"measurement": "ONO, pEC50, M", "setting": "human S1P5 Y89A mutant; n=3, N/R = no response", "value": "N/R and abolishes the functional response"}, {"measurement": "ONO-5430608 pEC50, single experiments #1-#3", "setting": "human S1P5 E112A mutant; [1]", "value": "N/R"}, {"measurement": "ONO, pEC50, M", "setting": "human S1P5 E112A mutant; n=3, N/R = no response", "value": "N/R"}, {"measurement": "ONO-5430608 pEC50, single experiments #1-#3", "setting": "human S1P5 Y19A mutant; [1]", "value": "N/R"}, {"measurement": "ONO, pEC50, M", "setting": "human S1P5 Y19A mutant; n=3, N/R = no response", "value": "N/R"}, {"measurement": "EC50", "setting": "human S1P5 V115L mutant; ONO, pEC50, M, V115L, mean ± SD, n=3", "value": 25.1, "unit": "nM"}, {"measurement": "EC50", "setting": "human S1P5 V115L mutant; ONO-5430608 pEC50, single experiments #1-#3, V115L, Figure 2c source data", "value": "20.7 nM and 25.9 nM and 22.9 nM"}, {"measurement": "EC50", "setting": "human S1P5 T79A mutant; ONO, pEC50, M, T79A, mean ± SD, n=3", "value": 5.13, "unit": "nM"}, {"measurement": "EC50", "setting": "human S1P5 T79A mutant; ONO-5430608 pEC50, single experiments #1-#3, T79A, Figure 2c source data", "value": "3.81 nM and 5.96 nM and 5.8 nM"}, {"measurement": "BRET signal, raw replicates", "setting": "human S1P5 T79A mutant; [ONO] 0.169351 nM, T79A", "value": "0.7648 and 0.7694 and 0.7618 (2×) and 0.7719 and 0.7737 and 0.7678 and 0.7602 and 0.7581"}, {"measurement": "BRET signal, raw replicates", "setting": "human S1P5 T79A mutant; [ONO] 0.508053 nM, T79A", "value": "0.7658 and 0.7637 (2×) and 0.7584 and 0.7703 and 0.7711 and 0.7719 and 0.7599 and 0.7561"}, {"measurement": "BRET signal, raw replicates", "setting": "human S1P5 T79A mutant; [ONO] 1.52416 nM, T79A", "value": "0.7571 and 0.7588 and 0.7577 and 0.7674 and 0.7689 and 0.7688 and 0.7557 and 0.7543 and 0.7567"}, {"measurement": "BRET signal, raw replicates", "setting": "human S1P5 T79A mutant; [ONO] 4.57247 nM, T79A", "value": "0.7445 and 0.7467 and 0.7472 (2×) and 0.7504 and 0.7523 and 0.7521 and 0.7458 and 0.7451"}, {"measurement": "BRET signal, raw replicates", "setting": "human S1P5 T79A mutant; [ONO] 13.7174 nM, T79A", "value": "0.7344 and 0.7321 and 0.7375 and 0.7326 and 0.7336 and 0.7328 and 0.7266 and 0.7286 and 0.7299"}, {"measurement": "BRET signal, raw replicates", "setting": "human S1P5 T79A mutant; [ONO] 41.1523 nM, T79A", "value": "0.7277 and 0.7202 and 0.7265 and 0.7247 and 0.7224 and 0.7225 and 0.7195 and 0.7262 and 0.7173"}, {"measurement": "BRET signal, raw replicates", "setting": "human S1P5 T79A mutant; [ONO] 123.457 nM, T79A", "value": "0.7246 and 0.7211 and 0.7132 and 0.7206 and 0.7203 and 0.7177 and 0.7146 and 0.7143 and 0.7168"}, {"measurement": "BRET signal, raw replicates", "setting": "human S1P5 T79A mutant; [ONO] 370.37 nM, T79A", "value": "0.7198 and 0.7165 and 0.7203 and 0.7175 and 0.72 and 0.7188 and 0.7152 and 0.7138 and 0.7182"}, {"measurement": "BRET signal, raw replicates", "setting": "human S1P5 T79A mutant; [ONO] 1111.11 nM, T79A", "value": "0.7229 and 0.7217 and 0.7211 and 0.7178 and 0.7185 and 0.7189 and 0.7126 and 0.7148 and 0.7145"}, {"measurement": "BRET signal, raw replicates", "setting": "human S1P5 T79A mutant; [ONO] 3333.33 nM, T79A", "value": "0.7168 and 0.7147 and 0.7207 and 0.7195 and 0.7142 and 0.7166 and 0.7162 and 0.7151 and 0.7155"}, {"measurement": "ONO-5430608 pEC50, single experiments #1-#3", "setting": "human S1P5 E112Q mutant; [1]", "value": "N/R"}, {"measurement": "ONO, pEC50, M", "setting": "human S1P5 E112Q mutant; n=3, N/R = no response", "value": "N/R"}]}]}
